Values quoted from earlier work as cited in patent US12203859B2, “Device for detecting contamination with photosynthesis inhibitor and method for detecting contamination with photosynthesis inhibitor” (National Institute for Environmental Studies, priority 2019, dated 2025).

Tested on: marine phytoplankton
Settings: pesticides that directly inhibit photosynthesis of plants

| SMILES | fluorescence quantum efficiency of marine phytoplankton |
| --- | --- |
| CSc1nc(NC2CC2)nc(NC(C)(C)C)n1 [Irgarol] | decreases |
| CN(C)C(=O)Nc1ccc(Cl)c(Cl)c1 [Diuron] | decreases |
